Read-outs that look alike come from different tables or passages of the source.
Columns and labels:
DENV-3 strain H87 = experiment: Tetravalent RT-qPCR assay, serotype 3; assay type: cell-based, Dengue virus; settings: RT-qPCR serotype 3 H87, Vero cells
Procedure: (§1) The antiviral activity of the compounds of the invention was tested against DENV-1 strain TC974#666 (NCPV), DENV-2 strain 16681, DENV-3 strain H87 (NCPV) and DENV-4 strain H241 (NCPV) in a RT-qPCR assay. Therefore, Vero cells were infected with either DENV-1, or -2, or -3, or -4 in the presence or absence of test compounds. At day 3 post-infection, the cells were lysed and cell lysates were used to prepare cDNA of both a viral target (the 3′UTR of DENV; Table 2) and a cellular reference gene (β-actin, Table 2). Subsequently, a duplex real time PCR was performed on a Lightcycler480 instrument. The generated Cp value is inversely proportional to the amount of RNA expression of these targets. Inhibition of DENV replication by a test compound results in a shift of Cp's for the 3′UTR gene. On the other hand, if a test compound is toxic to the cells, a similar effect on β-actin expression will be observed. The comparative ΔΔCp method is used to calculate ECs50, which is based on the relative gene expression of the target gene (3′UTR) normalized with the cellular housekeeping gene (β-actin). In addition, CC50 values are determined based on the Cp values acquired for the housekeeping gene β-actin.
(§2) The culture medium consisted of minimal essential medium supplemented with 2% of heat-inactivated fetal calf serum, 0.04% gentamycin (50 mg/mL) and 2 mM of L-glutamine. Vero cells, obtained from ECACC, were suspended in culture medium and 75 μL/well was added in 96-well plates (10000 cells/well), which already contain the antiviral compounds. […] In addition, each plate contains wells which are assigned as virus controls (containing cells and virus in the absence of compound) and cell controls (containing cells in the absence of virus and compound). Once the cells were added in the plates, the plates were incubated in a fully humidified incubator (37° C., 5% CO2) until the next day. Dengue viruses serotype-1, 2, 3 and 4 were diluted in order to obtain a Cp of ˜22-24 in the assay. Therefore, 25 μL of virus suspension was added to all the wells containing test compound and to the wells assigned as virus control. In parallel, 25 μL of culture medium was added to the cell controls. Next, the plates were incubated for 3 days in a fully humidified incubator (37° C., 5% CO2). After 3 days, the supernatant was removed from the wells and the cells were washed twice with ice-cold PBS (˜100 μL). The cell pellets within the 96-well plates were stored at −80° C. for at least 1 day. Next, RNA was extracted using the Cells-to-CT™ lysis kit, according to the manufacturer's guideline (Life Technologies). The cell lysates can be stored at −80C or immediately used in the reverse transcription step.
(§3) In preparation of the reverse transcription step, mix A (table 3A) was prepared and 7.57 μL/well was dispensed in a 96-well plate. After addition of 5 μL of the cell lysates, a five minute denaturation step at 75° C. was performed (table 3B). Afterwards, 7.43 μL of mix B was added (table 3C) and the reverse transcription step was initiated (table 3D) to generate cDNA.
(§4) Finally, a RT-qPCR mix was prepared, mix C (table 4A), and 22.02 μL/well was dispensed in 96-well LightCycler qPCR plates to which 3 μL of cDNA was added and the qPCR was performed according to the conditions in table 4B on a LightCycler 480.
(§5) Using the LightCycler software and an in-house LIMS system, dose response curves for each compound were calculated and the half maximal effective concentration (EC50) and the half maximal cytotoxic concentration (CC50) were determined (Tables 5-8).

DENV-4 strain H241 = experiment: Tetravalent RT-qPCR assay, serotype 4; assay type: cell-based, Dengue virus; settings: RT-qPCR serotype 4 H241, Vero cells
Procedure: as §1, §2, §3, §4, §5

DENV-2 strain 16681 = experiment: Tetravalent RT-qPCR assay, serotype 2; assay type: cell-based, Dengue virus; settings: RT-qPCR serotype 2 16681, Vero cells
Procedure: as §1, §2, §3, §4, §5

Vero cells [1] = settings: African green monkey, 3 days
DENV-1 strain TC974#666 = experiment: Tetravalent RT-qPCR assay, serotype 1; assay type: cell-based, Dengue virus; settings: RT-qPCR serotype 1 TC974#666, Vero cells
Procedure: as §1, §2, §3, §4, §5

DENV-2 16681 strain = experiment: microbe, parasite or virus in culture; assay type: cell-based, Dengue virus; settings: for EC50: DENV-2 16681 eGFP, Vero cells, MOI 0.5, 3 days; for SI: SI=CC50/EC50, DENV-2 antiviral assay
Vero cells [2] = settings: African green monkey
in vitro [3] = settings: African green monkey
in vitro [4] = settings: African green monkey; remark: listed apart in the source

Row | SMILES | EC50 (DENV-3 strain H87) [nM] | EC50 (DENV-4 strain H241) [nM] | EC50 (DENV-2 strain 16681) [nM] | CC50 (Vero cells [1]) [nM] | EC50 (DENV-1 strain TC974#666) [nM] | EC50 (DENV-2 16681 strain) [nM] | SI (DENV-2 16681 strain) | CC50 (Vero cells [2]) [nM] | CC50 (in vitro [3]) [nM] | EC50 (DENV-3 strain H87; Dengue virus, DENV3, Vero) [nM] | EC50 (DENV-4 strain H241; Dengue virus, DENV4, Vero) [nM] | EC50 (DENV-2 strain 16681; Dengue virus, DENV2, Vero) [nM] | EC50 (DENV-1 strain TC974#666; Dengue virus, DENV1, Vero) [nM] | CC50 at 3 days (in vitro [4]) [nM]
1 | COc1cc(NC(C(=O)N2CCc3cc(OC)c(C(F)(F)F)cc32)c2ccc(Cl)cc2)cc(OCCC(C)C(=O)O)c1 (single isomer, unassigned) [Compound 20D] | 8.9 | 55 | 0.19 | > 1000 | 0.89 | 0.23 | 53400 | 13000 |  |  |  |  |  | 
2 | COc1cc(NC(C(=O)N2CCc3ccc(OC(F)(F)F)cc32)c2ccc(Cl)cc2)cc(OCC2(F)CC2C(=O)O)c1 (centres unmarked) [Compound 29BB] | 0.39 | 2.8 | 0.025 |  | 0.048 | 0.069 | 124722 |  | 12000 |  |  |  |  | 
3 | COc1cc(NC(C(=O)N2CCc3ccc(OC(F)(F)F)cc32)c2ccc(Cl)cc2)cc(OCC2(CC(=O)O)CC2)c1 (single isomer, unassigned) [Compound 5A] |  |  |  |  |  | 0.51 | 26300 |  | 12000 | 8.1 | 58 | 0.42 | 0.58 | 
4 | COc1cc(NC(C(=O)N2CCc3ccc(OC(F)(F)F)cc32)c2ccc(Cl)cc2)cc(OCCC(C)(C)C(=O)O)c1 (single isomer, unassigned) [Compound 2A] |  |  |  |  |  | 0.38 | 34500 |  | 13000 | 6.1 | 27 | 0.48 | 0.57 | > 2500
5 | COc1cc(NC(C(=O)N2CCc3cc(OC)c(C(F)(F)F)cc32)c2ccc(Cl)cc2)cc(OCCC(C)C(=O)O)c1 (single isomer, unassigned) [Compound 20C] | 3.4 | 20 | 0.071 | > 1000 | 0.3 | 0.17 | 59500 | 12000 |  |  |  |  |  | > 1000
6 | COc1cc(NC(C(=O)N2CCc3cc(F)c(OC(F)(F)F)cc32)c2ccc(Cl)cc2)cc(OCC2CC(C(=O)O)C2)c1 (centres unmarked) [Compound 30A] |  |  |  |  | 0.094 | 0.24 | 47400 |  | 13000 | 1.9 | 18 | 0.076 |  | 
7 | COc1cc(NC(C(=O)N2CCc3ccc(OC(F)(F)F)cc32)c2ccc(Cl)cc2)cc(OCC(C)CC(=O)O)c1 (single isomer, unassigned) [Compound 4C] | 0.77 |  | 0.06 | > 1000 | 0.066 | 0.11 | 121878 | 13000 |  |  | 15 |  |  | 
8 | COc1cc(NC(C(=O)N2CCc3cc(OC)c(C(F)(F)F)cc32)c2ccc(Cl)cc2)cc(OCC2CC2C(=O)O)c1 (centres unmarked) [Compound 22BB] | 9 | 71 | 0.33 |  | 1.5 | 0.46 | 27600 | 14000 |  |  |  |  |  | 
9 | COc1cc(NC(C(=O)N2CCc3cc(OC)c(Cl)cc32)c2ccc(Cl)cc2)cc(OC2CC(C(=O)O)C2)c1 (single isomer, unassigned) [Compound 32B] |  |  |  |  |  | 0.081 | >230623 | 14000 |  | 0.57 | 10 | 0.033 | 0.11 | 
10 | COc1cc(NC(C(=O)N2CCc3ccc(OC(F)(F)F)cc32)c2ccc(Cl)cc2)cc(OCCC(C)C(=O)O)c1 (single isomer, unassigned) [Compound 1C] |  |  |  |  |  | 0.094 | 131193 |  | 12000 | 2.4 | 16 | 0.18 | 0.23 | 
11 | COc1cc(NC(C(=O)N2CCc3ccc(OC(F)(F)F)cc32)c2ccc(Cl)cc2)cc(OCC2(F)CC2C(=O)O)c1 (centres unmarked) [Compound 28BB] | 1.2 | 18 | 0.1 | > 1000 | 0.11 | 0.2 | 70600 | 12000 |  |  |  |  |  | 
12 | COc1cc(NC(C(=O)N2CCc3ccc(OC(F)(F)F)cc32)c2ccc(Cl)cc2OC)cc(OCCC(C)C(=O)O)c1 (single isomer, unassigned) [Compound 17D] | 2.7 | 15 | 0.1 |  | 0.21 | 0.12 | >9720 | 14000 |  |  |  |  |  | 
13 | COc1cc(NC(C(=O)N2CCc3ccc(OC(F)(F)F)cc32)c2ccc(Cl)cc2)cc(OCCCCC(=O)O)c1 (single isomer, unassigned) [Compound 13B] |  |  |  |  |  | 0.13 | 88200 | 12000 |  | 1.9 | 15 | 0.12 | 0.19 | > 2500
14 | COc1cc(NC(C(=O)N2CCc3ccc(OC(F)(F)F)cc32)c2ccc(Cl)cc2)cc(OCC2CC(C(=O)O)C2)c1 (centres unmarked) [Compound 10B] |  |  |  |  |  | 0.11 | 109987 | 11000 |  | 2.9 | 22 | 0.11 | 0.27 | 
15 | COc1cc(CCCC(=O)O)cc(NC(C(=O)N2CCc3ccc(OC(F)(F)F)cc32)c2ccc(Cl)cc2)c1 (single isomer, unassigned) [Compound 15B] |  |  |  |  |  | 0.45 | 24900 | 12000 |  | 2.8 | 35 | 0.23 | 0.24 | 
16 | COc1cc(CCCCC(=O)O)cc(NC(C(=O)N2CCc3ccc(OC(F)(F)F)cc32)c2ccc(Cl)cc2)c1 (single isomer, unassigned) [Compound 14A] |  |  |  |  |  | 0.11 | 151558 |  | 16000 | 2.8 | 15 | 0.2 | 0.26 | 

From patent publication US11407715B2, “Substituted indoline derivatives as dengue viral replication inhibitors” (JANSSEN PHARMACEUTICALS, INC., priority 2017, dated 2022)
